In PubChem BioAssay (NCI):
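These data come from cells grown in 96-well plates and exposed to compound for 48 hours at five concentrations. The concentration for 50% growth inhibition is given as GI50. Definition used: TGI = concentration required for complete inhibition of growth.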

Experiments:
Assay in all cases: NCI anticancer screen, dose series, 48 h
[1] = system: 786-0 renal
[2] = system: A498 renal
[3] = system: A549 NSCLC
[4] = system: ACHN renal
[5] = system: BT-549 breast
[6] = system: CAKI-1 renal
[7] = system: CCRF-CEM leukemia
[8] = system: COLO 205 colon
[9] = system: DU-145 prostate
[10] = system: EKVX NSCLC
[11] = system: HCC-2998 colon
[12] = system: HCT-116 colon
[13] = system: HCT-15 colon
[14] = system: HL-60(TB) leukemia
[15] = system: HOP-62 NSCLC
[16] = system: HOP-92 NSCLC
[17] = system: HT29 colon
[18] = system: IGROV1 ovarian
[19] = system: K-562 leukemia
[20] = system: KM12 colon
[21] = system: LOX IMVI melanoma
[22] = system: M14 melanoma
[23] = system: MALME-3M melanoma
[24] = system: MCF7 breast
[25] = system: MDA-MB-231 breast
[26] = system: MDA-MB-435
[27] = system: MOLT-4 leukemia
[28] = system: NCI-H226 lung
[29] = system: NCI-H23 lung
[30] = system: NCI-H460 lung
[31] = system: NCI-H522 lung
[32] = system: NCI/ADR-RES ovarian
[33] = system: OVCAR-3 ovarian
[34] = system: OVCAR-4 ovarian
[35] = system: OVCAR-5 ovarian
[36] = system: OVCAR-8 ovarian
[37] = system: PC-3 prostate
[38] = system: RPMI-8226 leukemia
[39] = system: RXF 393 renal
[40] = system: SF-268 CNS
[41] = system: SF-295 CNS
[42] = system: SF-539 CNS
[43] = system: SK-MEL-2 melanoma
[44] = system: SK-MEL-28 melanoma
[45] = system: SK-MEL-5 melanoma
[46] = system: SN12C renal
[47] = system: SNB-19 CNS
[48] = system: SNB-75 CNS
[49] = system: SR leukemia
[50] = system: SW-620 colon
[51] = system: T-47D breast
[52] = system: TK-10 renal
[53] = system: U251 CNS
[54] = system: UACC-62 melanoma
[55] = system: UO-31 renal
[56] = system: SK-OV-3 ovarian
[57] = system: UACC-257 melanoma

N#C/C(=C\c1ccc(F)cc1)n1nc2cccc(F)c2n1
GI50 [1]: 7.13 µM | TGI [1]: > 100 µM | GI50 [2]: 2.04 µM | TGI [2]: 7.25 µM | GI50 [3]: 4.01 µM | TGI [3]: > 100 µM | GI50 [4]: 5.41 µM | TGI [4]: > 100 µM | GI50 [5]: 4.72 µM | TGI [5]: > 100 µM | GI50 [6]: 5.17 µM | TGI [6]: > 100 µM | GI50 [7]: 3.24 µM | TGI [7]: > 100 µM | GI50 [8]: 4.16 µM | TGI [8]: > 100 µM | GI50 [9]: 3.2 µM | TGI [9]: > 100 µM | GI50 [10]: 3.8 µM | TGI [10]: > 100 µM | GI50 [11]: 7.14 µM | TGI [11]: > 100 µM | GI50 [12]: 3.57 µM | TGI [12]: > 100 µM | GI50 [13]: 2.58 µM | TGI [13]: > 100 µM | GI50 [14]: 2.69 µM | TGI [14]: 7.68 µM | GI50 [15]: 3.54 µM | TGI [15]: > 100 µM | GI50 [16]: 2.1 µM | TGI [16]: 9.15 µM | GI50 [17]: 3.89 µM | TGI [17]: > 100 µM | GI50 [18]: 5.01 µM | TGI [18]: > 100 µM | GI50 [19]: 3.25 µM | TGI [19]: > 100 µM | GI50 [20]: 2.83 µM | TGI [20]: > 100 µM | GI50 [21]: 2.92 µM | TGI [21]: 9.76 µM | GI50 [22]: 3.27 µM | TGI [22]: > 100 µM | GI50 [23]: 5.03 µM | TGI [23]: > 100 µM | GI50 [24]: 2.24 µM | TGI [24]: > 100 µM | GI50 [25]: 5.55 µM | TGI [25]: > 100 µM | GI50 [26]: 1.89 µM | TGI [26]: 4.62 µM | GI50 [27]: 3.09 µM | TGI [27]: > 100 µM | GI50 [28]: 4.64 µM | TGI [28]: > 100 µM | GI50 [29]: 3.9 µM | TGI [29]: > 100 µM | GI50 [30]: 3.01 µM | TGI [30]: 12.9 µM | GI50 [31]: 3.24 µM | TGI [31]: > 100 µM | GI50 [32]: 2.99 µM | TGI [32]: 14.8 µM | GI50 [33]: 2.75 µM | TGI [33]: > 100 µM | GI50 [34]: 4.19 µM | TGI [34]: > 100 µM | GI50 [35]: 5.04 µM | TGI [35]: > 100 µM | GI50 [36]: 5.06 µM | TGI [36]: > 100 µM | GI50 [37]: 4.68 µM | TGI [37]: > 100 µM | GI50 [38]: 3.09 µM | TGI [38]: 87.1 µM | GI50 [39]: 2.72 µM | TGI [39]: 27 µM | GI50 [40]: 4.99 µM | TGI [40]: > 100 µM | GI50 [41]: 3.53 µM | TGI [41]: > 100 µM | GI50 [42]: 3.14 µM | TGI [42]: 11.1 µM | GI50 [43]: 5.26 µM | TGI [43]: > 100 µM | GI50 [44]: 5.8 µM | TGI [44]: > 100 µM | GI50 [45]: 3.76 µM | TGI [45]: > 100 µM | GI50 [46]: 3.84 µM | TGI [46]: > 100 µM | GI50 [47]: 6.67 µM | TGI [47]: > 100 µM | GI50 [48]: 2.37 µM | TGI [48]: 8.09 µM | GI50 [49]: 2.31 µM | TGI [49]: > 100 µM | GI50 [50]: 3.45 µM | TGI [50]: > 100 µM | GI50 [51]: 4.2 µM | TGI [51]: > 100 µM | GI50 [52]: 7.01 µM | TGI [52]: > 100 µM | GI50 [53]: 3.52 µM | TGI [53]: > 100 µM | GI50 [54]: 3.3 µM | TGI [54]: > 100 µM | GI50 [55]: 3.65 µM | TGI [55]: > 100 µM

N#Cc1c2ccccc2c2nnc3ccc(C(F)(F)F)cc3n12
GI50 [1]: > 100 µM | TGI [1]: > 100 µM | GI50 [3]: 26.9 µM | TGI [3]: > 100 µM | GI50 [4]: 27.3 µM | TGI [4]: > 100 µM | GI50 [5]: 21 µM | TGI [5]: 44.6 µM | GI50 [6]: 43.7 µM | TGI [6]: > 100 µM | GI50 [7]: 71 µM | TGI [7]: > 100 µM | GI50 [8]: 39.4 µM | TGI [8]: > 100 µM | GI50 [9]: 28 µM | TGI [9]: > 100 µM | GI50 [12]: 58.4 µM | TGI [12]: > 100 µM | GI50 [13]: 40.6 µM | TGI [13]: > 100 µM | GI50 [14]: 40 µM | TGI [14]: > 100 µM | GI50 [15]: > 100 µM | TGI [15]: > 100 µM | GI50 [16]: 91.6 µM | TGI [16]: > 100 µM | GI50 [17]: 61.8 µM | TGI [17]: > 100 µM | GI50 [18]: 47.9 µM | TGI [18]: > 100 µM | GI50 [19]: 59.9 µM | TGI [19]: > 100 µM | GI50 [20]: 61.2 µM | TGI [20]: > 100 µM | GI50 [21]: 21.6 µM | TGI [21]: 94.5 µM | GI50 [23]: 47.9 µM | TGI [23]: > 100 µM | GI50 [24]: 27.6 µM | TGI [24]: > 100 µM | GI50 [25]: 88.1 µM | TGI [25]: > 100 µM | GI50 [26]: 32.5 µM | TGI [26]: > 100 µM | GI50 [27]: 10.4 µM | TGI [27]: > 100 µM | GI50 [29]: 33.5 µM | TGI [29]: > 100 µM | GI50 [30]: 28.7 µM | TGI [30]: > 100 µM | GI50 [31]: 17 µM | TGI [31]: 68.1 µM | GI50 [32]: 72.7 µM | TGI [32]: > 100 µM | GI50 [33]: 38.2 µM | TGI [33]: > 100 µM | GI50 [34]: 97.9 µM | TGI [34]: > 100 µM | GI50 [36]: 43.8 µM | TGI [36]: > 100 µM | GI50 [37]: 61.1 µM | TGI [37]: > 100 µM | GI50 [38]: 29.4 µM | TGI [38]: > 100 µM | GI50 [39]: 23.4 µM | TGI [39]: 80.3 µM | GI50 [40]: 80.7 µM | TGI [40]: > 100 µM | GI50 [41]: 42.7 µM | TGI [41]: > 100 µM | GI50 [43]: 23.5 µM | TGI [43]: 85.2 µM | GI50 [44]: > 100 µM | TGI [44]: > 100 µM | GI50 [45]: 16.1 µM | TGI [45]: 39.8 µM | GI50 [56]: 89.9 µM | TGI [56]: > 100 µM | GI50 [46]: > 100 µM | TGI [46]: > 100 µM | GI50 [47]: > 100 µM | TGI [47]: > 100 µM | GI50 [48]: 47.6 µM | TGI [48]: > 100 µM | GI50 [49]: 0.214 µM | TGI [49]: > 100 µM | GI50 [50]: 66.7 µM | TGI [50]: > 100 µM | GI50 [51]: > 100 µM | TGI [51]: > 100 µM | GI50 [52]: 23 µM | TGI [52]: > 100 µM | GI50 [53]: 28.9 µM | TGI [53]: > 100 µM | GI50 [57]: 21.2 µM | TGI [57]: 76.3 µM | GI50 [54]: 66.8 µM | TGI [54]: > 100 µM | GI50 [55]: 85.6 µM | TGI [55]: > 100 µM
